Laboratory results taken from the supplement of paper PMC6045584.
± gives the standard deviation of the averaged measurements.

How the values were obtained:
[1] = compound: CNC(=O)c1cc(Oc2ccc(NC(=O)Nc3ccc(Cl)c(C(F)(F)F)c3)cc2)ccn1 [SORAFENIB]; assay: surviving fraction relative to DMSO-only wells; higher = less growth inhibition; conditions: exposure time: 5 days
Method in brief: (§1)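 Inhibitors at 0.5, 1, 5, 10, 50, 100, 500 and 1000 nM were applied continuously for five days to tumour cell lines seeded in log phase at 250–500 cells per well in 384-well plates 24 hours earlier. Viability was measured by CellTiter-Glo luminescence and expressed as surviving fraction relative to the median of DMSO-only wells. Luminescence was taken after 10 minutes at room temperature.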

[2] = compound: CCn1c(C(=O)N(C2CC2)C2CC2)cc2c3c(ncn3C)c(Nc3cc(C)n(C)n3)nc21; assay: as above; conditions: exposure time: 5 days
Method in brief: as §1

Test System	surviving fraction ([1]; 0.5 nM)	surviving fraction ([1]; 5 nM)	surviving fraction ([1]; 10 nM)	surviving fraction ([1]; 50 nM)	surviving fraction ([1]; 100 nM)	surviving fraction ([1]; 500 nM)	surviving fraction ([1]; 1000 nM)	surviving fraction ([2]; 0.5 nM)	surviving fraction ([2]; 1 nM)	surviving fraction ([2]; 5 nM)	surviving fraction ([2]; 10 nM)	surviving fraction ([2]; 50 nM)	surviving fraction ([2]; 100 nM)	surviving fraction ([2]; 500 nM)	surviving fraction ([2]; 1000 nM)	surviving fraction ([1]; 1 nM)
HCC1954 BREAST	1.11 ± 0.15	1.02 ± 0.077	0.93 ± 0.27	1.22 ± 0.11	1.29 ± 0.039	1.3 ± 0.1	1.33 ± 0.14	0.868 ± 0.014	0.837 ± 0.18	0.999 ± 0.22	0.932 ± 0.18	0.92 ± 0.028	0.896 ± 0.013	0.764 ± 0.065	0.921 ± 0.085	
HCT15 LARGE INTESTINE	0.955 ± 0.029	0.99 ± 0.026	0.982 ± 0.021	1.09 ± 0.052	1.09 ± 0.064		1.06 ± 0.035	0.987 ± 0.032	0.972 ± 0.011	0.944 ± 0.021	0.986 ± 0.011	1.05 ± 0.043	1.05 ± 0.031	1.06 ± 0.018	1.06 ± 0.03	0.989 ± 0.0099
HELA CERVIX	1.03 ± 0.022	0.986 ± 0.047	0.9492 ± 0.0068	1.1 ± 0.024	1.09 ± 0.062	1.07 ± 0.055		1 ± 0.096	0.998 ± 0.036	0.939 ± 0.059	0.953 ± 0.044	1.09 ± 0.033	1.04 ± 0.026	1.05 ± 0.037	1.1 ± 0.09	0.982 ± 0.024
HOS BONE	1.03 ± 0.043	1.025 ± 0.0095	1.03 ± 0.018	1.09 ± 0.014				1 ± 0.0066	0.9927 ± 0.0081	0.994 ± 0.023	0.997 ± 0.0046	1.047 ± 0.0078	1.037 ± 0.0023	1.02 ± 0.013	0.96 ± 0.018	1.015 ± 0.0025
HOSMNG BONE	0.994 ± 0.086	0.943 ± 0.092	1 ± 0.14	1.06 ± 0.11	1.05 ± 0.16	1.1 ± 0.049	1.06 ± 0.15	1 ± 0.071	0.979 ± 0.11	0.992 ± 0.068	0.985 ± 0.07	1.04 ± 0.061	1.08 ± 0.08	1.01 ± 0.1	1.09 ± 0.038	0.975 ± 0.14
HSSYII SYNOVIAL	1 ± 0.059	0.977 ± 0.038	0.942 ± 0.035	0.947 ± 0.037	1.01 ± 0.024	0.855 ± 0.035	0.779 ± 0.038	0.918 ± 0.058	0.908 ± 0.022	0.905 ± 0.061	0.901 ± 0.022	0.937 ± 0.025	0.926 ± 0.027	0.926 ± 0.049	0.887 ± 0.039	0.975 ± 0.026
HT1080 SOFT TISSUE	1.04 ± 0.057	1.04 ± 0.035	1.02 ± 0.014	1.023 ± 0.005	1.01 ± 0.028	1.05 ± 0.09	1.01 ± 0.031	1.01 ± 0.04	0.993 ± 0.015	1.004 ± 0.0098	1.039 ± 0.002	0.965 ± 0.023	1.01 ± 0.036	0.997 ± 0.036	0.969 ± 0.011	1.05 ± 0.036
HU09 BONE	0.95 ± 0.061	1.01 ± 0.099	0.95 ± 0.072	0.809 ± 0.061	0.675 ± 0.063	0.512 ± 0.016	0.433 ± 0.02	1.06 ± 0.09	1.03 ± 0.11	1.09 ± 0.081	1.18 ± 0.22	1.25 ± 0.32	1 ± 0.072	0.915 ± 0.091	0.932 ± 0.064	0.951 ± 0.089
HUO3N1 BONE	1 ± 0.053		1 ± 0.036	1.004 ± 0.01	0.941 ± 0.04	0.818 ± 0.029	0.82 ± 0.017	0.9853 ± 0.0075	0.999 ± 0.029	1.05 ± 0.057	1.03 ± 0.048	1.07 ± 0.021	1 ± 0.048	0.967 ± 0.038	0.868 ± 0.013	
JIMT1 BREAST		1.02 ± 0.022	0.97 ± 0.014		1.05 ± 0.046		0.986 ± 0.071	0.975 ± 0.024	0.969 ± 0.034	0.973 ± 0.026	1.01 ± 0.013	1.07 ± 0.046	1.06 ± 0.02	1.06 ± 0.014	1.06 ± 0.0097	0.986 ± 0.028
JURKAT HAEMATOPOIETIC AND LYMPHOID TISSUE	1.106 ± 0.0035	1.11 ± 0.039	1.11 ± 0.037	1.08 ± 0.023	1.06 ± 0.029		0.863 ± 0.012	1.092 ± 0.0091	1.08 ± 0.017	1.09 ± 0.021	1.05 ± 0.037	1.05 ± 0.036	1.04 ± 0.034	1.08 ± 0.018	1.09 ± 0.014	1.1 ± 0.026
KPD BONE	0.922 ± 0.019	1.03 ± 0.032		0.989 ± 0.075				1.01 ± 0.074	0.951 ± 0.089	1.01 ± 0.043	0.991 ± 0.074	1.04 ± 0.047	1.01 ± 0.14	0.945 ± 0.017	0.99 ± 0.056	
LM7 BONE	0.938 ± 0.057		1.01 ± 0.066	1.11 ± 0.14	1.04 ± 0.054		1.05 ± 0.033	0.967 ± 0.042	0.976 ± 0.03	1.07 ± 0.041	1.03 ± 0.097	1.04 ± 0.047	1.06 ± 0.073	0.994 ± 0.12	0.896 ± 0.03	0.97 ± 0.048
LNCAP PROSTATE	1.01 ± 0.084	1 ± 0.082	1.06 ± 0.08	0.902 ± 0.23		0.887 ± 0.12	0.853 ± 0.17	0.985 ± 0.1	0.852 ± 0.067	0.908 ± 0.19	0.861 ± 0.12	0.969 ± 0.032	0.915 ± 0.013	0.802 ± 0.03	0.806 ± 0.067	
MCF7 BREAST	0.866 ± 0.025	0.904 ± 0.021	0.851 ± 0.022	0.928 ± 0.047	0.939 ± 0.034	0.995 ± 0.074	0.873 ± 0.025	0.815 ± 0.049	0.841 ± 0.028	0.844 ± 0.025	0.828 ± 0.03	0.913 ± 0.048	0.862 ± 0.026	0.889 ± 0.065	0.854 ± 0.039	0.86 ± 0.068
MDAMB134 BREAST	1.04 ± 0.067	1.06 ± 0.033	1.02 ± 0.031	1.06 ± 0.053	1.14 ± 0.091	1.21 ± 0.18		1.16 ± 0.2	1.07 ± 0.086	1.15 ± 0.23	0.87 ± 0.014	1.04 ± 0.14	0.986 ± 0.14	0.907 ± 0.0014	0.976 ± 0.025	1.26 ± 0.12
MDAMB157 BREAST	0.962 ± 0.016	0.984 ± 0.03	0.923 ± 0.046		1.01 ± 0.059	0.963 ± 0.036		0.935 ± 0.14	0.923 ± 0.06	0.93 ± 0.042	0.935 ± 0.071	0.836 ± 0.059	0.89 ± 0.068	0.837 ± 0.059	0.829 ± 0.053	0.909 ± 0.064
MDAMB231 BREAST	0.99 ± 0.025	0.924 ± 0.036	0.905 ± 0.014	0.887 ± 0.014	0.936 ± 0.05		0.929 ± 0.016	0.965 ± 0.026	0.9749 ± 0.0034	0.975 ± 0.038	1.01 ± 0.011	1.01 ± 0.02	1.02 ± 0.014	0.926 ± 0.02	0.9 ± 0.025	0.995 ± 0.014
MDAMB361 BREAST	0.813 ± 0.078	0.904 ± 0.029		0.909 ± 0.034	0.837 ± 0.03	0.796 ± 0.049	0.84 ± 0.098	0.838 ± 0.094	0.87 ± 0.039	0.829 ± 0.083	0.812 ± 0.049	0.867 ± 0.055	0.8863 ± 0.0064	0.93 ± 0.083	0.842 ± 0.038	0.862 ± 0.089
MDAMB436 BREAST	0.966 ± 0.04	0.977 ± 0.057	0.949 ± 0.085		0.961 ± 0.043		0.855 ± 0.019	0.857 ± 0.024	0.807 ± 0.1	0.8337 ± 0.0019	0.877 ± 0.086	0.926 ± 0.029	0.946 ± 0.12	0.983 ± 0.13	0.941 ± 0.033	0.992 ± 0.046
MDAMB453 BREAST	1.08 ± 0.064	1.11 ± 0.074	1.09 ± 0.011	1.12 ± 0.056	1.12 ± 0.091		1.04 ± 0.047	1.02 ± 0.033	0.992 ± 0.039	0.983 ± 0.02	0.986 ± 0.028	1.048 ± 0.0087	1.05 ± 0.033	1.04 ± 0.015	1.02 ± 0.028	
MDAMB468 BREAST	1 ± 0.083	1.15 ± 0.062	1.09 ± 0.072	1.28 ± 0.073	1.26 ± 0.12	1.23 ± 0.029	1.21 ± 0.051	0.984 ± 0.047	1.02 ± 0.059	1.05 ± 0.067	1.06 ± 0.09	1.05 ± 0.039	1.05 ± 0.074	0.985 ± 0.046	1.03 ± 0.095	
